Assay results taken from PMC9007462 (Journal of Medicinal Chemistry, 2022).

How the values were obtained:
Human ALDH3A1 [1] = molecular target: T1, Human ALDH3A1 (Homo sapiens, UniProt P30838); assay: ALDH3A1 inhibition, IC50, Ki and type of inhibition; assay type: biochemical; settings: 31 μM 4-NBA as substrate; mean ± SE
T1 construct: made in house
T1 sequence (P30838 1-453): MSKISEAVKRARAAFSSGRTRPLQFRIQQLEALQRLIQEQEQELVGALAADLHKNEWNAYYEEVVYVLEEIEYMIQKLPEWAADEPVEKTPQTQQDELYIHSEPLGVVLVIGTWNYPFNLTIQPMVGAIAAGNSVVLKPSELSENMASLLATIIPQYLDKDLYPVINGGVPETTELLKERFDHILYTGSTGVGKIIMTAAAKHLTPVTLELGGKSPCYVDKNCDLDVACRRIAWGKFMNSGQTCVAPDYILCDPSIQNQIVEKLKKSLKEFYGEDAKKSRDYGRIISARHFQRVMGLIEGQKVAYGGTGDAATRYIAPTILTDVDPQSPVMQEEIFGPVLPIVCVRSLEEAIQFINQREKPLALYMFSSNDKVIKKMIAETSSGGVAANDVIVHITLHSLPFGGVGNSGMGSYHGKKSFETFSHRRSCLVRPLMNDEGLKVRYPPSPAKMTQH
Procedure: (§1) Human ALDH1A1, ALDH1A3, and ALDH3A1 were cloned and recombinantly expressed from the pET-30 Xa/LIC vector. Protein purification was achieved by affinity chromatography on a nickel-charged chelating Sepharose Fast Flow 5-mL column (His Trap column, Cytiva), which specifically binds the protein due to its N-terminal (His)6 tag, using an ÄKTA FPLC system (Cytiva), as previously described.[55] Enzymes including the His tag were stored at −80 °C in 20 mM Tris/HCl and 0.5 M NaCl, pH 8.0, until use. Reaction buffers were as follows: ALDH1A1 was assayed in 50 mM HEPES, 0.5 mM EDTA, and 0.5 mM DTT, pH 8.0; ALDH1A3 was assayed in 50 mM HEPES, 30 mM MgCl2, and 5 mM DTT, pH 8.0; and ALDH3A1 was assayed in 50 mM Tris–HCl and 5 mM DTT, pH 8.0. Activity under standard conditions was measured fluorimetrically at 25 °C using a Cary Eclipse (Varian) fluorimeter to follow the purification procedure and to check the enzyme concentration before each kinetic experiment. The fluorescence of NADH was characterized at 460 nm with excitation at 340 nm, and 5 μM NAD(P)H was added as an internal standard to obtain the absolute reaction rates.[55] Standard activity was measured at saturating concentrations of substrate using 30 μM hexanal (ALDH1A1), 250 μM hexanal (ALDH1A3), or 250 μM 4-NBA (ALDH3A1). NAD^+ was 500 μM for ALDH1A1 and ALDH1A3, and NADP^+ was 1 mM for ALDH3A1.
In order to determine the IC50 values, reaction rates were determined at various concentrations of inhibitor at a fixed concentration of substrate. As substrates for ALDH1A1, ALDH1A3, and ALDH3A1, 5 μM hexanal, 6 μM hexanal, and 31 μM 4-NBA, respectively, were used. The IC50 values were calculated by nonlinear fitting of the obtained data to a sigmoidal plot using GraFit 5.0 (Erithacus software), with the following 4-parameter equation [drawing 2] , where y is the specific activity, x is the inhibitor concentration, background is the minimum y value, range is the fitted uninhibited value minus the background, and s is the slope factor. Values are expressed as the mean ± SE.
Activity assays to determine the type of inhibition and Ki value were performed using various substrate and inhibitor concentrations maintaining the same conditions as for the IC50 experiments and using GraFit 5.0 for data processing. The data of enzymatic activities at different inhibitor concentrations were fitted to the Michaelis–Menten equation to determine the values of Km and Vmax. Next, results were fitted to the equations for competitive, given by [drawing 3]; noncompetitive, given by [drawing 4]; uncompetitive, given by [drawing 5]; and mixed, given by [drawing 6] .[56] The type of inhibition was selected based on the lowest error value. Parameters were expressed as the mean ± SE.

Human ALDH1A3 [2] = molecular target: T2, Human ALDH1A3 (Homo sapiens, UniProt P47895); assay: ALDH1A3 inhibition, IC50, Ki and type of inhibition; assay type: biochemical; settings: 6 μM hexanal as substrate; mean ± SE
T2 construct: made in house
T2 sequence (P47895 1-512): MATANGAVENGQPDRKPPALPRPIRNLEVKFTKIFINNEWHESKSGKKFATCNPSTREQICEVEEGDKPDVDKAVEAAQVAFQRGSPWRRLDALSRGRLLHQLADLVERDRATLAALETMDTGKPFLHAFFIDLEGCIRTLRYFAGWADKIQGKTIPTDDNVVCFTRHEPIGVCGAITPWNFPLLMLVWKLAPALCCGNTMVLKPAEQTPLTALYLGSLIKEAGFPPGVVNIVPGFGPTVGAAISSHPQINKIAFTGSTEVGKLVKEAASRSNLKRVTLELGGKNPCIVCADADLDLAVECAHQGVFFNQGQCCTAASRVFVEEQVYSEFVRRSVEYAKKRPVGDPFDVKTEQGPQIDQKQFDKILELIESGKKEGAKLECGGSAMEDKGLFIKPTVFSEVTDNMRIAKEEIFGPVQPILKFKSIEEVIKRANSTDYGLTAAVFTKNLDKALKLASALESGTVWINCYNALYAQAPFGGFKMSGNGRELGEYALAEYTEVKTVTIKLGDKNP
Procedure: Human ALDH1A1, ALDH1A3, and ALDH3A1 were cloned and recombinantly expressed from the pET-30 Xa/LIC vector. Protein purification was achieved by affinity chromatography on a nickel-charged chelating Sepharose Fast Flow 5-mL column (His Trap column, Cytiva), which specifically binds the protein due to its N-terminal (His)6 tag, using an ÄKTA FPLC system (Cytiva), as previously described.[55] Enzymes including the His tag were stored at −80 °C in 20 mM Tris/HCl and 0.5 M NaCl, pH 8.0, until use. Reaction buffers were as follows: ALDH1A1 was assayed in 50 mM HEPES, 0.5 mM EDTA, and 0.5 mM DTT, pH 8.0; […] Activity under standard conditions was measured fluorimetrically at 25 °C using a Cary Eclipse (Varian) fluorimeter to follow the purification procedure and to check the enzyme concentration before each kinetic experiment. […] In order to determine the IC50 values, reaction rates were determined at various concentrations of inhibitor at a fixed concentration of substrate. […] Values are expressed as the mean ± SE. […] The data of enzymatic activities at different inhibitor concentrations were fitted to the Michaelis–Menten equation to determine the values of Km and Vmax. Next, results were fitted to the equations for competitive, given by [drawing 3]; noncompetitive, given by [drawing 4]; uncompetitive, given by [drawing 5]; and mixed, given by [drawing 6] .[56] The type of inhibition was selected based on the lowest error value. Parameters were expressed as the mean ± SE.

[3] = test system: PC3, DU145 and LNCaP prostate cancer cell lines; assay: MTT chemosensitivity assay, panel of three prostate cancer cell lines; assay type: cell-based; settings: Homo sapiens, 96 h exposure, read-out: IC50 against three prostate cancer cell lines
Procedure: (§2) MTT (3-(4, 5-dimethyl-2-thiazolyl)-2, 5-diphenyl-2H-tetrazolium bromide) assay was used to determine cell viability.[64] Immortalized PCa cells (PC-3, Du-145, and LNCaP) were seeded in 96-well plates and allowed to adhere overnight at 37 °C, 5% CO2, and 100% humidity. […] After 96 h of exposure, 200 μL of MTT (Sigma) solution (0.5 mg/mL) was added to each well and incubated at 37 °C for 4 h. The formazan crystals were dissolved in DMSO (Sigma), and the absorbance was read using a microplate reader (Multiskan EX; Thermo Fisher Scientific) at 540 nm. Data analysis was performed using Microsoft Excel 2013 and GraphPad Prism software.

DU145 = assay: MTT chemosensitivity assay, DU145; assay type: cell-based, human; settings: Homo sapiens, DU-145, 96 h exposure, ± SD, at least three independent experiments
Procedure: as §2

LNCaP = assay: MTT chemosensitivity assay, LNCaP; assay type: cell-based, human; settings: Homo sapiens, LNCaP, 96 h exposure, ± SD, at least three independent experiments
Procedure: as §2

PC3 = assay: MTT chemosensitivity assay, PC3; assay type: cell-based, human; settings: Homo sapiens, PC-3, 96 h exposure, ± SD, at least three independent experiments
Procedure: as §2

Human ALDH3A1 [4] = molecular target: T1, Human ALDH3A1; assay: ALDH3A1 inhibition, IC50, Ki and type of inhibition; assay type: biochemical; settings: measured at a saturating substrate concentration (4-NBA); mean ± SE
Human ALDH1A1 = molecular target: T3, Human ALDH1A1 (Homo sapiens, UniProt P00352); assay: DEAB analogues as substrates of ALDH1A1; assay type: biochemical; settings: 10 μM compound as substrate, relative to activity with 10 μM hexanal (Figure S2)
T3 construct: made in house
T3 sequence (P00352 1-501): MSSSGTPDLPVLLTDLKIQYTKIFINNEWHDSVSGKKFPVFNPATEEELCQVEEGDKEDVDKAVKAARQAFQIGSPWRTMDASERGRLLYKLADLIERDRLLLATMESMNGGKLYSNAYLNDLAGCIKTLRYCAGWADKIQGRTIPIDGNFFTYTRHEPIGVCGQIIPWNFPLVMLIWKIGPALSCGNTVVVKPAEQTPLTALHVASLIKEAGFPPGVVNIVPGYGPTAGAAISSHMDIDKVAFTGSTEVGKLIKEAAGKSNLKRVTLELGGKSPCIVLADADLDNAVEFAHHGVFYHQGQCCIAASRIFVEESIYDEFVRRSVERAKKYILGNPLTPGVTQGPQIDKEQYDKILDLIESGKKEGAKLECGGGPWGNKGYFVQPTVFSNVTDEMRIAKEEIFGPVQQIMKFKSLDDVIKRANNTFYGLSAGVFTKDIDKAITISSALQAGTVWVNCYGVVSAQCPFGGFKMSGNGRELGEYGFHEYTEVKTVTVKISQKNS
Procedure: as §1
According to their structure with a carbonyl group, compounds were tested for their substrate properties against ALDH1A1, ALDH1A3, and ALDH3A1. […] Results are expressed as the percentage of activity at 10 μM versus the activity at 10 μM of their standard substrate (hexanal or 4-NBA). Values are expressed as the mean ± SE.

[5] = test system: patient-derived primary prostate tumor epithelial cells; settings: other primary samples analyzed in the authors' laboratory; cited from earlier work
Human ALDH1A3 [6] = molecular target: T2, Human ALDH1A3; assay: Inhibition screening, single point at 10 μM, ALDH1A3; assay type: biochemical; settings: 10 μM compound; hexanal as substrate (Figure S1)
Procedure: as §1, with “Reaction buffers were as follows: ALDH1A1 was assayed in 50 mM HEPES, 0.5 mM EDTA, and 0.5 mM DTT, pH 8.0; ALDH1A3 was assayed in 50 mM HEPES, 30 mM MgCl2, and 5 mM DTT, pH 8.0; and ALDH3A1 was assayed in 50 mM Tris–HCl and 5 mM DTT, pH 8.0.” left out, “NAD^+ was 500 μM for ALDH1A1 and ALDH1A3, and NADP^+ was 1 mM for ALDH3A1.” left out
All compounds tested were dissolved in DMSO and assayed at a final concentration of 1% (v/v) DMSO. […] Alternatively, the enzymatic activity was measured in a Varian Cary 400 UV–vis spectrophotometer, by monitoring the increase in the absorbance of NAD(P)H at 340 nm (ε = 6.22 mM^–1·cm^–1) or in a Cary Eclipse Varian fluorimeter, as described above. […]

IC50 (Human ALDH3A1 [1]) [µM]	IC50 (Human ALDH1A3 [2]) [µM]	IC50 [3] [µM]	IC50 (DU145) [µM]	IC50 (LNCaP) [µM]	IC50 (PC3) [µM]	IC50 (Human ALDH3A1 [4]) [µM]	ALDH1A1 substrate activity (Human ALDH1A1) [%]	SMILES	IC50 [5] [µM]	remaining ALDH1A3 activity (Human ALDH1A3 [6]) [%]
5.67 ± 0.66	10.4 ± 1	> 200	> 200	> 200	> 200	–	–	CCN(CC)c1ccc(C=O)cc1 [DEAB, 4-(Diethylamino)benzaldehyde, reference compound]	–	–
–	0.55 ± 0.05	–	90 ± 27	10 ± 3	77 ± 17	13.7 ± 0.3	17.9	CCCN(CCC)c1ccc(C=O)cc1Cl [Compound 7, 3-Chloro-4-(dipropylamino)benzaldehyde]	–	–
–	–	–	–	–	–	–	–	CC(=O)O[C@@]12CO[C@@H]1C[C@H](O)[C@@]1(C)C(=O)[C@H](O)C3=C(C)[C@@H](OC(=O)[C@H](O)[C@@H](NC(=O)OC(C)(C)C)c4ccccc4)C[C@@](O)([C@@H](OC(=O)c4ccccc4)[C@H]21)C3(C)C [docetaxel]	0.001	–
–	–	–	–	–	–	–	–	Cc1cc(C=O)ccc1N1CCN(C)CC1 [Compound 24, 3-Methyl-4-(4-methylpiperazin-1-yl)benzaldehyde]	–	45
